Laboratory results taken from ChEMBL document CHEMBL1201862, “PubChem BioAssay data set” (2004).
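How tested: cells in 96-well plates exposed to compound for 48 hours at five concentrations. GI50 is the concentration that inhibits growth by half.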 Activity calls are given as the source filed them. Rule as the data show it: active = GI50 up to about 1.1 µM and inactive = higher.

Experiments:
Experiment in all cases: NCI anticancer screen, dose series, 48 h
[1] = test system: COLO 205
[2] = test system: SNB-75
[3] = test system: EKVX
[4] = test system: HL-60
[5] = test system: KM-20L2
[6] = test system: OVCAR-4
[7] = test system: UO-31
[8] = test system: OVCAR-8
[9] = test system: SK-OV-3
[10] = test system: Malme-3M
[11] = test system: K562
[12] = test system: UACC-257
[13] = test system: M14
[14] = test system: NCI-H522
[15] = test system: HOP-92
[16] = test system: A498
[17] = test system: SR

Measured: GI50

N#C/C(=C\c1c(O)cc(O)cc1O)C(N)=O
inactive: [1] > 100 µM | [2] 36.2 µM | [3] > 100 µM | [4] > 100 µM | [5] > 100 µM | [6] > 100 µM | [7] > 100 µM | [8] > 100 µM | [9] > 100 µM | [10] > 100 µM | [11] > 100 µM | [12] > 100 µM | [13] > 100 µM | [14] > 100 µM | [15] > 100 µM | [16] > 100 µM

O=C1CCCC2COc3ccc(O)c1c32 (stereo not given)
inactive: [1] > 100 µM | [2] > 100 µM | [3] > 100 µM | [4] > 100 µM | [5] > 100 µM | [6] > 100 µM | [7] > 100 µM | [17] > 100 µM | [8] > 100 µM | [9] > 100 µM | [10] > 100 µM | [11] > 100 µM | [12] > 100 µM | [13] > 100 µM | [14] > 100 µM | [15] > 100 µM | [16] > 100 µM

O=C1CCC2(CC1)SCCCS2
inactive: [1] > 100 µM | [2] 61.1 µM | [3] > 100 µM | [4] > 100 µM | [5] > 100 µM | [6] > 100 µM | [7] > 100 µM | [8] > 100 µM | [9] > 100 µM | [10] > 100 µM | [11] > 100 µM | [12] > 100 µM | [13] > 100 µM | [14] > 100 µM | [15] > 100 µM | [16] > 100 µM

Cc1c(Cl)c2ccccc2n1S(=O)(=O)c1ccccc1
inactive: [1] > 100 µM | [2] 19.9 µM | [4] 25.8 µM | [5] 26.5 µM | [6] 36.7 µM | [7] 26.1 µM | [17] 32.1 µM | [8] 52.6 µM | [10] > 100 µM | [11] 38.5 µM | [12] 53.1 µM | [13] 37.8 µM | [14] 19.6 µM | [15] 15.7 µM

Cn1ccnc1CCc1c(Cl)cccc1Cl
inactive: [1] > 100 µM | [2] > 100 µM | [4] > 100 µM | [5] > 100 µM | [6] > 100 µM | [7] 71.3 µM | [17] > 100 µM | [8] > 100 µM | [9] > 100 µM | [10] > 100 µM | [11] > 100 µM | [12] > 100 µM | [13] > 100 µM | [14] > 100 µM | [15] 52.1 µM | [16] > 100 µM

Oc1ccccc1/C=C/c1csnn1
inactive: [1] > 100 µM | [2] > 100 µM | [3] > 100 µM | [4] 39.4 µM | [5] > 100 µM | [6] > 100 µM | [7] > 100 µM | [17] > 46.2 µM | [8] > 100 µM | [9] > 100 µM | [10] > 100 µM | [11] > 100 µM | [12] > 100 µM | [13] > 100 µM | [14] > 100 µM | [15] > 100 µM | [16] > 100 µM

C[N+](C)(C)CC(=O)N/N=C(/Cc1nc2ccc([N+](=O)[O-])cc2nc1O)C(=O)Nc1cc(C(F)(F)F)ccc1Cl
inactive: [1] > 100 µM | [3] 76 µM | [4] > 100 µM | [5] > 100 µM | [6] > 100 µM | [7] 40.8 µM | [17] > 100 µM | [8] > 100 µM | [9] > 100 µM | [10] > 100 µM | [11] > 100 µM | [12] > 100 µM | [13] > 100 µM | [14] 28.4 µM | [15] 62.1 µM | [16] > 100 µM

Cc1no[n+]([O-])c1/C=N/NS(=O)(=O)c1ccccc1
inactive: [1] > 100 µM | [3] > 100 µM | [4] > 100 µM | [5] > 100 µM | [6] > 100 µM | [7] > 100 µM | [17] > 100 µM | [8] > 100 µM | [9] > 100 µM | [10] > 100 µM | [11] > 100 µM | [13] > 100 µM | [14] > 100 µM | [15] > 100 µM | [16] 75.3 µM

CCOC(=O)c1cnc2cc3cccccc3n2c1=O
inactive: [1] > 100 µM | [2] 97.5 µM | [3] > 100 µM | [4] > 100 µM | [5] > 100 µM | [6] > 100 µM | [7] > 100 µM | [17] 45 µM | [8] > 100 µM | [11] > 100 µM | [12] > 100 µM | [13] > 100 µM | [16] > 100 µM
